{"source": "patent US20150335624A1", "about": "“COMPOSITIONS AND METHODS FOR USING HUPERZINE AND ANALOGS THEREOF” (INSERO HEALTH INC., priority 2013, published 2015)", "assay_type_in_all_cases": "in vivo, human", "key": {"[1]": {"test_system": "IL-6", "experiment": "Phase 1 clinical trial, inflammatory marker IL-6 (IITR1)", "conditions": "excluding #7", "procedure": "(§1) A phase 1 clinical trial was conducted with huperzine A. The primary aim of the study was to conduct a proof-of-principle assessment of the safety and tolerability and early stage pharmacokinetics of dietary supplement Huperzine A up to 6.4 mg/day as add-on, open-label therapy in 8 subjects with drug-resistant epilepsy. The hypothesis was that Huperzine A in 8 subjects with drug-resistant epilepsy as add-on; open-label therapy would be well tolerated when titrated from 1.6 mg/day up to 6.4 mg/day. The secondary aim was to acquire preliminary data on the parasympathetic effect of Huperzine A on cardiac function.\n(§2) The trial was a single-center, in-patient, open-label, dose-escalation study conducted at one site. This study would enroll up to 10 adults (≧18 years to 65 years) to obtain 8 randomized subjects with drug-resistant epilepsy that were not well controlled with 1 to 3 concomitant anti-epileptic drugs (AEDs).\n(§3) Eight subjects with drug-resistant epilepsy were provided huperzine A. Six subjects completed the study. Doses were varied as in Table A. Doses were six hours apart. Subjects 1-3 began dosing at 18:00, subjects 4-8 began dosing at 12:00.\n(§4) Table B provides biomarker test results. Baseline, peak and change values represented as mean±the standard error of the mean (SEM). Statistical data is included for all subjects excluding subject #7 because that subject was on a conflicting medication. Peak represents peak plasma level or, if unavailable, the nearest values for all values except cardiological markers where peak represents Day 2. The p-values were calculated from one-sided paired t tests."}, "[2]": {"experiment": "Phase 1 clinical trial, renal marker eGFR (creatinine clearance rate)", "conditions": "excluding #7", "procedure": "as §1, §2, §3, §4"}, "[3]": {"test_system": "IL-1 beta", "experiment": "Phase 1 clinical trial, inflammatory marker IL-1 beta", "conditions": "excluding #7", "procedure": "as §1, §2, §3, §4"}, "[4]": {"test_system": "MCP-1", "experiment": "Phase 1 clinical trial, marker MCP-1", "procedure": "as §1, §2, §3, §4\nMonocyte chemotactic protein-1 (MCP-1) as a marker is implicated in pathogeneses of several diseases characterized by monocytic infiltrates. MCP-1 is involved in the neuroinflammatory processes that take place in the various diseases of the central nervous system, which are characterized by neuronal degeneration. MCP-1 expression in glial cells is increased in epilepsy, brain ischemia, Alzheimer's disease, some encephalomyelitis, and traumatic brain injury."}, "[5]": {"test_system": "IL-10", "experiment": "Phase 1 clinical trial, inflammatory marker IL-10", "conditions": "excluding #7", "procedure": "as §1, §2, §3, §4"}, "[6]": {"test_system": "IL-6", "experiment": "Phase 1 clinical trial, inflammatory marker IL-6 (Labcorp, different test center)", "conditions": "excluding #7", "procedure": "as §1, §2, §3, §4"}, "[7]": {"test_system": "CRP", "experiment": "Phase 1 clinical trial, cardiologic marker CRP", "procedure": "as §1, §2, §3, §4"}, "[8]": {"experiment": "Phase 1 clinical trial, renal marker serum creatinine", "procedure": "as §1, §2, §3, §4"}, "[9]": {"test_system": "IL-17", "experiment": "Phase 1 clinical trial, inflammatory marker IL-17", "conditions": "excluding #7", "procedure": "as §1, §2, §3, §4"}, "[10]": {"experiment": "Phase 1 clinical trial, ECG recording of cardiac function (heart rate, HRV, TWA, QT, VPB, VT)", "conditions": "for T-wave alternans (TWA): all leads; for TWA elevated: in the normal range", "procedure": "as §1, §2, §3\nHeart rate, heart rate variability. T-wave alternans, QT interval, ventricular premature beats, and ventricular tachycardia were studied in all 8 subjects enrolled in the study. […] This individual experienced transient peaks in heart rate and a few ventricular premature beats, probably due to an emesis-related surge in sympathetic nerve activity. […] ECG recordings show a transient disconnect in subjects one."}, "[11]": {"test_system": "TNF-alpha", "experiment": "Phase 1 clinical trial, inflammatory marker TNF-alpha", "conditions": "excluding #7", "procedure": "as §1, §2, §3, §4"}, "[12]": {"experiment": "Phase 1 clinical trial, peak plasma level of huperzine A", "procedure": "as §1, §2\nThe study drug was supplied as 0.200 mg tablets and dispensed by the study site's pharmacy. Huperzine A tablets derived from Huperzia serrata were sourced from a commercially available supplier in the United States.\nRandomly chosen tablets of the supplied trial medication, as well as a composite have been assessed for purity by an independent laboratory using standard analytic techniques (HPLC) and found to contain between 0.145 mg and 0.166 mg of Huperzine A per tablet. Subject dosing was based on the label potency of the tablets (i.e. 0.200 mg). Tablets were randomly assigned to each subject in a dosing bottle container containing 120 tablets per subject. Each bottle was labeled with a study identifier. subject ID, dose of each tablet, dosing instructions, expiration date, and lot number.\nas §3"}, "[13]": {"conditions": "peak vs baseline, mean ± SEM, excluding #7"}, "[14]": {"conditions": "8 subjects, full recording period"}, "[15]": {"conditions": "8 subjects, full recording period, listed as huperzine"}}, "note": "Where “and” joins values, the source holds several entries; their conditions need not be identical. Equal entries are not always repeated."}
{"smiles": "C/C=C1\\[C@H]2C=C(C)C[C@]1(N)c1ccc(=O)[nH]c1C2", "note": "[Huperzine A, (1R,9,13E)-1-amino-13-ethylidene-11-methyl-6-azatricyclo[7.3.1.0^2,7]trideca-2(7),3,10-trien-5-one]", "values": [{"measurement": "IL-6 (IITR1) Peak", "setting": "[1]; mean ± SEM, at peak plasma level, baseline 1.3 ± 0.2", "result": "2.8 ± 0.7", "unit": "pg/mL"}, {"measurement": "IL-6 (IITR1) % Change", "setting": "[1]; peak vs baseline", "result": 115, "unit": "%"}, {"measurement": "IL-6 (IITR1) Change", "setting": "[1]; peak vs baseline, mean ± SEM", "result": "1.5 ± 1.5", "unit": "pg/mL"}, {"measurement": "eGFR (flow rate) Peak", "setting": "[2]; mean ± SEM, at peak plasma level, baseline 98.3 ± 23.5", "result": "107.6 ± 13.4", "unit": "mL/min/1.73"}, {"measurement": "eGFR (flow rate) % Change", "setting": "[2]; peak vs baseline", "result": 9, "unit": "%"}, {"measurement": "eGFR (flow rate) Change", "setting": "[2]; peak vs baseline, mean ± SEM", "result": "9.3 ± 12.7", "unit": "mL/min/1.73"}, {"measurement": "IL-1 beta Peak", "setting": "[3]; mean ± SEM, at peak plasma level, baseline 23.9 ± 12.4", "result": "30.0 ± 9.8", "unit": "pg/mL"}, {"measurement": "IL-1 beta % Change", "setting": "[3]; peak vs baseline", "result": 26, "unit": "%"}, {"measurement": "IL-1 beta Change", "setting": "[3]; peak vs baseline, mean ± SEM", "result": "6.1 ± 5.2", "unit": "pg/mL"}, {"measurement": "decrease in levels of MCP-1", "setting": "[4]; from an average of 175.2±43.5 pg/mL", "result": 15, "unit": "%"}, {"measurement": "MCP-1 Peak", "setting": "[4]; mean ± SEM, excluding #7, at peak plasma level, baseline 175.2 ± 43.5", "result": "148.9 pg/mL and 148.9 ± 26.3 pg/mL"}, {"measurement": "MCP-1 % Change", "setting": "[4]; peak vs baseline, excluding #7", "result": "−15", "unit": "%"}, {"measurement": "MCP-1 Change", "setting": "[4]; [13]", "result": "-26.3 ± 28.6", "unit": "pg/mL"}, {"measurement": "IL-10 Peak", "setting": "[5]; mean ± SEM, at peak plasma level, baseline 7.3 ± 2.7", "result": "8.8 ± 1.5", "unit": "pg/mL"}, {"measurement": "IL-10 % Change", "setting": "[5]; peak vs baseline", "result": 21, "unit": "%"}, {"measurement": "IL-10 Change", "setting": "[5]; peak vs baseline, mean ± SEM", "result": "1.6 ± 1.6", "unit": "pg/mL"}, {"measurement": "IL-6 (Labcorp) Peak", "setting": "[6]; mean ± SEM, at peak plasma level, baseline 1.8 ± 1.2", "result": "4.2 ± 2.4", "unit": "pg/mL"}, {"measurement": "IL-6 (Labcorp) % Change", "setting": "[6]; peak vs baseline", "result": 133, "unit": "%"}, {"measurement": "IL-6 (Labcorp) Change", "setting": "[6]; peak vs baseline, mean ± SEM", "result": "2.4 ± 2.6", "unit": "pg/mL"}, {"measurement": "decrease in CRP", "setting": "[7]; from an average of 2.6±3.0 mg/L, p-value 0.02", "result": 29, "unit": "%"}, {"measurement": "CRP Peak", "setting": "[7]; mean ± SEM, subjects excluding #7, peak = Day 2, baseline 2.6 ± 3.0", "result": "1.8 ± 2.3", "unit": "mg/L"}, {"measurement": "CRP % Change", "setting": "[7]; peak vs baseline, excluding #7", "result": "−29", "unit": "%"}, {"measurement": "CRP Change", "setting": "[7]; [13]", "result": "-0.7 ± 0.8", "unit": "mg/L"}, {"measurement": "decrease in serum creatinine", "setting": "[8]; from an average of 0.9 mg/dL, p-value 0.02", "result": 18, "unit": "%"}, {"measurement": "Serum creatine Peak", "setting": "[8]; mean ± SEM, excluding #7, at peak plasma level, baseline 0.9 ± 0.3", "result": "0.7 ± 0.1", "unit": "mg/dL"}, {"measurement": "Serum creatine % Change", "setting": "[8]; peak vs baseline, excluding #7", "result": "−18", "unit": "%"}, {"measurement": "Serum creatine Change", "setting": "[8]; [13]", "result": "-0.2 ± 0.2", "unit": "mg/dL"}, {"measurement": "IL-17 Peak", "setting": "[9]; mean ± SEM, at peak plasma level, baseline 35.1 ± 17.7", "result": "36.1 ± 19.2", "unit": "pg/mL"}, {"measurement": "IL-17 % Change", "setting": "[9]; peak vs baseline", "result": 3, "unit": "%"}, {"measurement": "IL-17 Change", "setting": "[9]; peak vs baseline, mean ± SEM", "result": "1.0 ± 1.0", "unit": "pg/mL"}, {"measurement": "T-wave alternans (TWA)", "setting": "[10]; [14]", "result": "generally low in all leads"}, {"measurement": "T-wave alternans (TWA)", "setting": "[10]; [15]", "result": "low TWA levels"}, {"measurement": "QTc interval", "setting": "[10]; 8 subjects, corrected using Bazett's formula", "result": "none of the 8 subjects in the study exhibited an increase in QTc interval"}, {"measurement": "episodes of ventricular tachycardia", "setting": "[10]; 8 subjects, entire recording period", "result": "no episodes of ventricular tachycardia occurred in any of the 8 subjects"}, {"measurement": "Heart rate", "setting": "[10]; [14]", "result": "stable throughout the recordings in all but one subject"}, {"measurement": "QT interval", "setting": "[10]; [14]", "result": "unaltered"}, {"measurement": "ventricular premature beat (VPB) count", "setting": "[10]; [14]", "result": "low"}, {"measurement": "Heart rate", "setting": "[10]; [15]", "result": "7 of the 8 subjects exhibited stable heart rates"}, {"measurement": "heart rate variability, low frequency/high frequency (LF/HF) ratio", "setting": "[10]; 8 subjects, full recording period, normal range about 1 to about 4", "result": "stable"}, {"measurement": "cardiac electrical activity", "setting": "[10]; after huperzine administration", "result": "remains normal"}, {"measurement": "LF/HF ratio trend", "setting": "[10]; during the first 6 hours of recording", "result": "trend toward lowering of the LF/HF ratio"}, {"measurement": "TWA elevated", "setting": "[10]; subject 1007", "result": "about 25 μV"}, {"measurement": "increase in heart rate", "setting": "[10]; subject only, apparently related to emesis", "result": "about 120 beats/min"}, {"measurement": "TWA elevated", "setting": "[10]; subject two, during final 120-beat/min heart rate surge", "result": "about 30 μV"}, {"measurement": "TNF-alpha Peak", "setting": "[11]; mean ± SEM, at peak plasma level, baseline 1.6 ± 0.4", "result": "1.3 ± 0.4", "unit": "pg/mL"}, {"measurement": "TNF-alpha % Change", "setting": "[11]; peak vs baseline", "result": "−15", "unit": "%"}, {"measurement": "TNF-alpha Change", "setting": "[11]; peak vs baseline, mean ± SEM", "result": "-0.2 ± 0.1", "unit": "pg/mL"}, {"measurement": "Peak Plasma", "setting": "[12]; Subject 1, oral tablets, 4 doses 0.40-0.80 mg six hours apart", "result": 2.6, "unit": "ng/mL"}, {"measurement": "Peak Plasma", "setting": "[12]; Subject 2, 3 doses 0.40-0.80 mg six hours apart", "result": 6.7, "unit": "ng/mL"}, {"measurement": "Peak Plasma", "setting": "[12]; Subject 3, 12 doses 0.40-0.80 mg six hours apart", "result": 9.6, "unit": "ng/mL"}, {"measurement": "Peak Plasma", "setting": "[12]; Subject 4, 11 doses 0.40-0.60 mg six hours apart", "result": 11.8, "unit": "ng/mL"}, {"measurement": "Peak Plasma", "setting": "[12]; Subject 5, 13 doses 0.40-0.80 mg six hours apart", "result": 12.9, "unit": "ng/mL"}, {"measurement": "Peak Plasma", "setting": "[12]; Subject 6, 13 doses 0.40-0.60 mg six hours apart", "result": 15.9, "unit": "ng/mL"}, {"measurement": "Peak Plasma", "setting": "[12]; Subject 7, 13 doses 0.40-0.60 mg six hours apart", "result": 13.2, "unit": "ng/mL"}]}
